These are literature values, as cited in US11938211B2, “Process for coloring keratinous material comprising the use of an organosilicon compound, an effect pigment, a further coloring compound and a film-forming polymer I” (Henkel AG & Co. KGaA, priority 2019, dated 2024).

The conditions of the data set: 25° C.

Consider `CCN(Cc1cccc(S(=O)(=O)[O-])c1)c1ccc(C(=C2C=CC(=[N+](CC)Cc3cccc(S(=O)(=O)[O-])c3)C=C2)c2ccccc2S(=O)(=O)[O-])cc1.[Na+].[Na+]` [Acid Blue 9], for which the solubility in water result is reported as “more than 20 % by weight”.

`O=S(=O)([O-])c1ccc(N=Nc2c(O)ccc3ccccc23)cc1.[Na+]` [Acid Orange 7, sodium salt of 4-[(2-hydroxy-1-naphthyl)azo]benzene sulphonate]: the solubility in water result is “more than 7 g/L”.

Consider `Nc1cc(S(=O)(=O)[O-])cc2cc(S(=O)(=O)[O-])c(N=Nc3ccccc3)c(O)c12.[Na+].[Na+]` [Acid Red 33, disodium salt of 5-amino-4-hydroxy-3-(phenylazo)-naphthalene-2,7-disulphonate], for which the solubility in water is 2500 µg/mL.

Regarding `O=C([O-])c1c(Cl)c(Cl)c(Cl)c(Cl)c1-c1c2c(Br)cc(=O)c(Br)c-2oc2c(Br)c(O)cc(Br)c12.O=C([O-])c1c(Cl)c(Cl)c(Cl)c(Cl)c1-c1c2c(Br)cc(=O)c(Br)c-2oc2c(Br)c(O)cc(Br)c12.[Na+].[Na+]` [Acid Red 92, disodium salt of 3,4,5,6-tetrachloro-2-(1,4,5,8-tetrabromo-6-hydroxy-3-oxoxanthen-9-yl)benzoic acid], the solubility in water entry is reported as “greater than 10 g/L”.

Consider `O=C([O-])C1=NN(c2ccc(S(=O)(=O)[O-])cc2)C(=O)C1N=Nc1ccc(S(=O)(=O)[O-])cc1.[Na+].[Na+].[Na+]` (centres unmarked) [Acid Yellow 23, trisodium salt of 4,5-dihydro-5-oxo-1-(4-sulfophenyl)-4-((4-sulfophenyl)azo)-1H-pyrazole-3-carboxylic acid], for which the “solubility in water (in words)” value is listed as “highly soluble”.
